According to patent US20140011757A1, “NOVEL MACROLIDE DERIVATIVE” (MEIJI SEIKA PHARMA CO., LTD., priority 2011, published 2014):
Converted amounts (≈) assume the structure as drawn. “And” between values parts separate entries of the source, which are not always exact repeats. Equal values may be shown once. Read-outs that look alike come from different tables or passages of the source.

How the values were obtained:
H. somni = test: In vitro antibacterial activity, broth microdilution MIC (CLSI M31-A2); format: cell-based, Histophilus somni
Experimental: (§1) Hereinafter, a description is made of an evaluation method for the compound. The compound was measured for its in vitro antibacterial activity by a broth microdilution method in accordance with a CLSI method (formerly NCCLS method, […]-A2) (Performance Standards for Antimicrobial Disk and Dilution Susceptibility Tests for Bacteria Isolated from Animals; Approved Standard-Second Edition NCCLS […]-A2 Vol. 22 No. 6 2002). A medium used was BBL Mueller Hinton II broth supplemented with lysed horse blood and NAD. A test drug solution at each concentration level obtained by dissolving a test drug in ethanol and then diluting the resultant with the liquid medium described above was dispensed into a 96-well microplate, and a test bacterial strain was inoculated. After having been cultured in the presence of 5% CO2 at 37° C. for 20 to 24 hours, the test bacterial strain was visually observed for the presence or absence of its growth. A minimum drug concentration completely inhibiting the growth of the test bacterial strain was defined as a minimum inhibitory concentration (hereinafter, referred to as MIC). The compound obtained in the present invention was measured for its in vitro antibacterial activity by a broth microdilution method in accordance with a CLSI method (formerly NCCLS method, […]-A2) (Performance Standards for Antimicrobial Disk and Dilution Susceptibility Tests for Bacteria Isolated from Animals; Approved Standard-Second Edition NCCLS […]-A2 Vol. 22 No. 6 2002). A medium composition used in the measurement is shown below. […] The resultant test drug solution was further subjected to two-step dilution with the liquid medium described above to prepare a test drug solution at each concentration level. The thus prepared test drug solution at each concentration level was dispensed into a 96-well microplate at 100 μL/well, and a test bacterial strain was inoculated at about 5×10^4 CFU/well. After having been cultured in the presence of 5% CO2 at 37° C. for 20 to 24 hours, the test bacterial strain was visually observed for the presence or absence of its growth. A minimum drug concentration completely inhibiting the growth of the test bacterial strain was defined as a minimum inhibitory concentration (hereinafter, referred to as MIC). […] Saponin was dissolved with purified water. The solution was sterilized and then added to defibrinated horse blood.

M. haemolytica = test: as above; format: cell-based, Mannheimia haemolytica
Experimental: as §1

H. parasuis = test: as above; format: cell-based, Haemophilus parasuis
Experimental: as §1

A. pleuropneumoniae = test: as above; format: cell-based, Actinobacillus pleuropneumoniae
Experimental: as §1

P. multocida = test: as above; format: cell-based, Pasteurella multocida
Experimental: as §1

[1] = system: main pathogens of bacterial respiratory tract infections in livestock animals such as cattle and swine; format: cell-based
[2] = Histophilus somni, H. somni strain 11321, read-out: MIC
[3] = Histophilus somni, H. somni strain 11423-3, read-out: MIC
[4] = Mannheimia haemolytica, M. haemolytica strain 11443, read-out: MIC
[5] = Mannheimia haemolytica, M. haemolytica strain 11467-2, read-out: MIC
[6] = Glaesserella parasuis, H. parasuis strain 11510-1, read-out: MIC
[7] = Glaesserella parasuis, H. parasuis strain 11640-1, read-out: MIC
[8] = Actinobacillus pleuropneumoniae, A. pleuropneumoniae strain 10895-2, read-out: MIC
[9] = Actinobacillus pleuropneumoniae, A. pleuropneumoniae strain 11684-7, read-out: MIC
[10] = Actinobacillus pleuropneumoniae, A. pleuropneumoniae strain 11796-1, read-out: MIC
[11] = Actinobacillus pleuropneumoniae, A. pleuropneumoniae strain 11804-2, read-out: MIC
[12] = Actinobacillus pleuropneumoniae, ATCC27089, A. pleuropneumoniae strain ATCC27089, read-out: MIC
[13] = Pasteurella multocida, ATCC43019, P. multocida (bovine) strain ATCC43019, read-out: MIC
[14] = Pasteurella multocida, ATCC43137, P. multocida (swine) strain ATCC43137, read-out: MIC
[15] = Pasteurella multocida, P. multocida (bovine) strain 11272, read-out: MIC
[16] = Pasteurella multocida, P. multocida (bovine) strain 11325-1, read-out: MIC
[17] = Pasteurella multocida, P. multocida (bovine) strain 11787-24, read-out: MIC
[18] = Pasteurella multocida, P. multocida (swine) strain 11587-3, read-out: MIC
[19] = Pasteurella multocida, P. multocida (swine) strain 11745-15, read-out: MIC

Molecule | MIC (H. somni; [2]) | MIC (H. somni; [3]) | MIC (M. haemolytica; [4]) | MIC (M. haemolytica; [5]) | MIC (H. parasuis; [6]) | MIC (H. parasuis; [7]) | MIC (A. pleuropneumoniae; [8]) | MIC (A. pleuropneumoniae; [9]) | MIC (A. pleuropneumoniae; [10]) | MIC (A. pleuropneumoniae; [11]) | MIC (A. pleuropneumoniae; [12]) | MIC (P. multocida; [13]) | MIC (P. multocida; [14]) | MIC (P. multocida; [15]) | MIC (P. multocida; [16]) | MIC (P. multocida; [17]) | MIC (P. multocida; [18]) | MIC (P. multocida; [19]) | also measured
CO[C@@H]1C(OC2O[C@@H](C)C(O)C(N(C)C)C2O)[C@@H](CC=O)C[C@@H](C)[C@@H](OC(C)=O)/C=C/[C@@H](N(C)CCCc2ccnc3ccccc23)[C@@H](O)C[C@@H](C)OC(=O)C[C@H]1OC(C)=O (stereo partly shown) [Compound of formula (I)] | 0.5 µg/mL | 1 µg/mL | 4 µg/mL | 4 µg/mL | 0.5 µg/mL | 4 µg/mL | 4 µg/mL | 32 µg/mL | 4 µg/mL | 8 µg/mL | 4 µg/mL | 4 µg/mL | 4 µg/mL | 4 µg/mL | 2 µg/mL | 4 µg/mL | 4 µg/mL | 4 µg/mL | MIC corresponding to an activity enhanced as compared to josamycin [1]: approximately 8 fold; MIC corresponding to an activity enhanced as compared to tulathromycin [1]: ≥ 4 fold; antibacterial activities as compared to the existing drugs [1]: remarkably strong antibacterial activities
CO[C@@H]1[C@@H](O[C@@H]2O[C@H](C)[C@@H](O[C@H]3C[C@@](C)(O)[C@@H](OC(=O)CC(C)C)[C@H](C)O3)[C@H](N(C)C)[C@H]2O)[C@@H](CC=O)C[C@@H](C)[C@@H](O)/C=C/C=C/C[C@@H](C)OC(=O)C[C@H]1OC(C)=O [JM, josamycin] | 2 µg/mL (≈ 2.42 µM) | 8 µg/mL (≈ 9.66 µM) | 16 µg/mL (≈ 19.3 µM) | 32 µg/mL (≈ 38.6 µM) | 8 µg/mL (≈ 9.66 µM) | 32 µg/mL (≈ 38.6 µM) | 32 µg/mL (≈ 38.6 µM) | 64 µg/mL (≈ 77.3 µM) | 16 µg/mL (≈ 19.3 µM) | 8 µg/mL (≈ 9.66 µM) | 16 µg/mL (≈ 19.3 µM) | 64 µg/mL (≈ 77.3 µM) | 32 µg/mL (≈ 38.6 µM) | 16 µg/mL (≈ 19.3 µM) | 8 µg/mL (≈ 9.66 µM) | 32 µg/mL (≈ 38.6 µM) | 32 µg/mL (≈ 38.6 µM) | 32 µg/mL (≈ 38.6 µM) | –
CCCNC[C@]1(O)[C@H](C)O[C@@H](O[C@H]2[C@H](C)[C@@H](O[C@@H]3O[C@H](C)C[C@H](N(C)C)[C@H]3O)[C@](C)(O)C[C@@H](C)CN[C@H](C)[C@@H](O)[C@](C)(O)[C@@H](CC)OC(=O)[C@@H]2C)C[C@@]1(C)OC [TLM, tulathromycin] | – | – | – | – | – | – | – | – | – | – | – | – | – | – | – | – | – | – | MIC (H. somni; H. somni strain 11321): 1 µg/mL (≈ 1.24 µM); MIC (H. somni; H. somni strain 11423-3): 1 µg/mL (≈ 1.24 µM); MIC (M. haemolytica; M. haemolytica strain 11443): 16 µg/mL (≈ 19.8 µM); MIC (M. haemolytica; M. haemolytica strain 11467-2): 32 µg/mL (≈ 39.7 µM); MIC (H. parasuis; H. parasuis strain 11510-1): 4 µg/mL (≈ 4.96 µM); MIC (H. parasuis; H. parasuis strain 11640-1): 8 µg/mL (≈ 9.92 µM); MIC (A. pleuropneumoniae; A. pleuropneumoniae strain 10895-2): 16 µg/mL (≈ 19.8 µM); MIC (A. pleuropneumoniae; A. pleuropneumoniae strain 11684-7): 64 µg/mL (≈ 79.4 µM); MIC (A. pleuropneumoniae; A. pleuropneumoniae strain 11796-1): 16 µg/mL (≈ 19.8 µM); MIC (A. pleuropneumoniae; A. pleuropneumoniae strain 11804-2): 16 µg/mL (≈ 19.8 µM); MIC (A. pleuropneumoniae; A. pleuropneumoniae strain ATCC27089): 32 µg/mL (≈ 39.7 µM); MIC (P. multocida; P. multocida (bovine) strain 11272): 16 µg/mL (≈ 19.8 µM); MIC (P. multocida; P. multocida (bovine) strain 11325-1): 4 µg/mL (≈ 4.96 µM); MIC (P. multocida; P. multocida (bovine) strain 11787-24): 8 µg/mL (≈ 9.92 µM); MIC (P. multocida; P. multocida (bovine) strain ATCC43019): 16 µg/mL (≈ 19.8 µM); MIC (P. multocida; P. multocida (swine) strain 11587-3): 16 µg/mL (≈ 19.8 µM); MIC (P. multocida; P. multocida (swine) strain 11745-15): 8 µg/mL (≈ 9.92 µM); MIC (P. multocida; P. multocida (swine) strain ATCC43137): 16 µg/mL (≈ 19.8 µM)
CC[C@H]1OC(=O)C[C@@H](O)[C@H](C)[C@@H](O[C@@H]2O[C@H](C)[C@@H](O)[C@H](N(C)C)[C@H]2O)[C@@H](CCN2C[C@H](C)C[C@H](C)C2)C[C@@H](C)C(=O)/C=C/C(C)=C/[C@@H]1CO[C@@H]1O[C@H](C)[C@@H](O)[C@@H](OC)[C@H]1OC [TMS, tilmicosin] | 1 µg/mL (≈ 1.15 µM) | 4 µg/mL (≈ 4.6 µM) | 16 µg/mL (≈ 18.4 µM) | 8 µg/mL (≈ 9.2 µM) | 1 µg/mL (≈ 1.15 µM) | 16 µg/mL (≈ 18.4 µM) | 16 µg/mL (≈ 18.4 µM) | 128 µg/mL (≈ 147 µM) | 16 µg/mL (≈ 18.4 µM) | 16 µg/mL (≈ 18.4 µM) | 16 µg/mL (≈ 18.4 µM) | 32 µg/mL (≈ 36.8 µM) | 16 µg/mL (≈ 18.4 µM) | 32 µg/mL (≈ 36.8 µM) | 16 µg/mL (≈ 18.4 µM) | 16 µg/mL (≈ 18.4 µM) | 16 µg/mL (≈ 18.4 µM) | 16 µg/mL (≈ 18.4 µM) | –
CC[C@H]1OC(=O)C[C@@H](O)[C@H](C)[C@@H](O[C@@H]2O[C@H](C)[C@@H](O[C@H]3C[C@@](C)(O)[C@@H](O)[C@H](C)O3)[C@H](N(C)C)[C@H]2O)[C@@H](CC=O)C[C@@H](C)C(=O)/C=C/C(C)=C/[C@@H]1CO[C@@H]1O[C@H](C)[C@@H](O)[C@@H](OC)[C@H]1OC [TS, tylosin] | 1 µg/mL (≈ 1.09 µM) | 4 µg/mL (≈ 4.37 µM) | 16 µg/mL (≈ 17.5 µM) | 128 µg/mL (≈ 140 µM) | 4 µg/mL (≈ 4.37 µM) | 8 µg/mL (≈ 8.73 µM) | 16 µg/mL (≈ 17.5 µM) | 256 µg/mL (≈ 279 µM) | 32 µg/mL (≈ 34.9 µM) | 32 µg/mL (≈ 34.9 µM) | 32 µg/mL (≈ 34.9 µM) | 64 µg/mL (≈ 69.9 µM) | 64 µg/mL (≈ 69.9 µM) | 64 µg/mL (≈ 69.9 µM) | 16 µg/mL (≈ 17.5 µM) | 32 µg/mL (≈ 34.9 µM) | 64 µg/mL (≈ 69.9 µM) | 64 µg/mL (≈ 69.9 µM) | –
aivlosin | – | – | – | – | – | – | – | – | – | – | – | – | – | – | – | – | – | – | MIC (M. haemolytica): 32 µg/mL and 64 µg/mL; MIC (H. parasuis): 16 µg/mL and 32 µg/mL; MIC (A. pleuropneumoniae): 32 µg/mL and 64 µg/mL; MIC (P. multocida): 256 µg/mL and 128 µg/mL
